This experiment concerns amyloid deposits in heart tissue, lung tissue, bladder tissue, lymph node tissue and bone from a subject with AL amyloidosis. The experiment can be described thus: Imaging of tissues from AL amyloidosis subject: staining of paraffin sections, viewed with a UV filter set. The experiment is classed as binding. Particulars: 100 nM stain, 60 min, deparaffinized paraffin sections from a subject with AL amyloidosis, FIG. 1. The method, then: Paraffin sections of heart, lung, bladder, lymph node and bone from a subject with AL amyloidosis were deparaffinized in xylene and stained with 100 nM X-34 [Styren et al. J Histochem Cytochem 48:1223-1232 (2000)] in 20% ethanol/80% 150 mM Tris Buffer (pH 7.4) or 100 nM 2-(4′-methylaminophenyl)-6-cyanobenzothiazole (6-CN-BTA-1) [Mathis et al. J Med Chem 46:2740-2754 (2003)] in PBS (pH 7.4) for 60 min followed by a brief, 5 second wash in water followed by coverslipping and viewing with an UV filter set (FIG. 1).

Consider `CNc1ccc(-c2nc3ccc(C#N)cc3s2)cc1` [Example 6-CN-BTA-1, 2-(4′-methylaminophenyl)-6-cyanobenzothiazole], for which the “binding to amyloid deposits in heart tissue, lung tissue, bladder tissue, lymph node tissue and bone” value is on record as “binding”.

Take `O=C(O)c1cc(/C=C/c2ccc(/C=C/c3ccc(O)c(C(=O)O)c3)cc2)ccc1O` [Example X-34]: the “binding to amyloid deposits in heart tissue, lung tissue, bladder tissue, lymph node tissue and bone” value is given as “binding”.

(Values after patent US20080305040A1, “In Vivo or in Vitro Method For Detecting Amyloid Deposits Having at Least One Amyloidogenic Protein” (UNIVERSITY OF PITTSBURGH, priority 2005, published 2008).)
